Laboratory results taken from patent publication EP0415999B1, “COMPOSITIONS HAVING USE AS TREATMENT OF PSORIASIS AND NEUROP[…]” (THE UNITED STATES OF AMERICA as represented by the …, priority 1988, dated 1998).

Tested on: volunteers who tested negative or HIV antibodies
Test: Overall neuropsychologic and clinical observations during seven-day peptide administration
Type: in vivo, human
Method: As indicated in the Table, symptoms of substance abuse, childhood dyslexia and depression were ameliorated. The peptide having the formula: [formula] was given at dosage of 0.033 mg/kg/da to 0.133 mg/kg/da for seven days. As indicated in the Table, the unexpected effects observed in these volunteers who tested negative or HIV antibodies were the following: • 1. […] This effect maintained for one month of follow-up.

Compound: C[C@@H](N)C(=O)N[C@@H](CO)C(=O)N[C@H](C(=O)N[C@H](C(=O)N[C@H](C(=O)N[C@@H](CC(N)=O)C(=O)N[C@@H](Cc1ccc(O)cc1)C(=O)N[C@H](C(N)=O)[C@@H](C)O)[C@@H](C)O)[C@@H](C)O)[C@@H](C)O [Peptide T]
- scores on memory and attention components of standard neuropsychologic tests (0.033 mg/kg/da to 0.133 mg/kg/da for seven days, remitted after Peptide T was discontinued): Incremental scores
- physical activity (all subjects, while on drug, did not continue after drug discontinuance): increases in physical activity
- fatigue, energy and vigor (reported by subjects) (all subjects, effect abated off drug): decreased fatigue and increased energy and vigor
- mood scores on depression scales (two research volunteers with prior histories of depression, effect maintained for one month of follow-up): Improved mood scores
